Measured values published in PMC10612037 (Viruses, 2023).
pEC50: −log10 of the molar value. Structures can show the parent of a compound that is named as a salt.

Key:
[1] = system: HIV-1 xxLAI; assay: microbe, parasite or virus in culture; format: cell-based; conditions: Human immunodeficiency virus 1; unpassaged HIV-1 xxLAI WT stock virus
[2] = system: HIV-1 subtypes A, B, C, D, CRF_AE, CRF_AG; assay: Dose-response assay in TZM-GFP cells, diverse primary isolates
[3] = system: HIV-1 NL4-3; assay: Dose-response assay in TZM-GFP cells, NL4-3 molecular clones with RT mutations; conditions: for major resistance observed: all NL4-3 mutants tested, major = >12-fold for ISL, >4-fold for TDF
[4] = system: HIV-1 isolates B, C, CRF_AE, CRF_AG; format: cell-based
[5] = system: HIV-1 RT; set-up: method as in earlier work; conditions: K65R RT; cited from earlier work
[6] = cited from earlier work
[7] = system: HIV-1 reverse transcriptase (endogenous RT in virions); assay: Endogenous reverse transcriptase assay; format: biochemical; conditions: K65R virions

| SMILES | pEC50 [1] | EC50 fold change from NL4-3 ([2]; subtype A) | EC50 fold change from NL4-3 ([2]; subtype B) | EC50 fold change from NL4-3 ([2]; subtype C) | EC50 fold change from NL4-3 ([2]; subtype D) | fold resistance relative to WT (EC50 fold change) ([3]; NL4-3 K65R) | major resistance observed [3] | fold more susceptible, K65R with Ser68 vs K65R with Gly68 ([4]; CRF_AE backbone) | susceptibility of Ser68 compared with Gly68 ([4]; CRF_AE backbone) | sensitivity of mutant relative to WT ([4]; K65R, regardless of the isolate (B, C, CRF_AE, CRF_AG)) | fold more susceptible than wildtype RT [5] | tolerability ([6]; early clinical studies in humans) | effect on CD4 T cell population ([6]; lower dose of ISL) | effect on CD4 T cells ([6]; subsequent clinical studies, patients on ISL) | EC50 fold change from NL4-3 ([2]; all subtypes (A, B, C, D, CRF_AE, CRF_AG), 8-10 isolates each) | fold more sensitive than WT (EC50) ([3]; NL4-3 K65R) | resistance phenotype (IC50 fold change from WT) [7] |
| --- | --- | --- | --- | --- | --- | --- | --- | --- | --- | --- | --- | --- | --- | --- | --- | --- | --- |
| CC(C)OC(=O)OCOP(=O)(CO[C@H](C)Cn1cnc2c(N)ncnc21)OCOC(=O)OC(C)C [TDF, Tenofovir disoproxil fumarate] | 7.61 | 1.3 fold | 2.2 fold | 2.2 fold | 1.6 fold | 3 fold | No major resistance | – | – | – | – | – | – | – | – | – | – |
| C#C[C@]1(CO)O[C@@H](n2cnc3c(N)nc(F)nc32)C[C@@H]1O [ISL, 4′-ethynyl-2-fluoro-2′-deoxyadensine] | 8.44 | – | – | – | – | – | No major resistance | 3 fold | more susceptible | hypersensitivity | 4 fold | well tolerated | without any effects on the CD4 T cell population | decline in CD4 T cells | no more than 1.3 fold | 4 fold | – |
| C[C@@H](Cn1cnc2c(N)ncnc21)OCP(=O)(O)OP(=O)(O)OP(=O)(O)O [TFV-DP] | – | – | – | – | – | – | – | – | – | – | – | – | – | – | – | – | conferred resistance |
